# Source: paper PMC7269146, “Jingzhaotoxin-X, a gating modifier of Kv4.2 and Kv4.3 potassium channels purified from the venom of the Chinese tarantula Chilobrachys jingzhao” (The Journal of Venomous Animals and Toxins Including …, 2020)
# Where a SMILES comes first, the peptide text is derived from it. Bridges are numbered along the chain shown (N, C = ends).
# Molecular target: T1, Kv4.3 (Rattus norvegicus, UniProt Q62897)
# T1 construct: expressed in transfected cells; host or cells: HEK293t
# T1 sequence (Q62897 1-655): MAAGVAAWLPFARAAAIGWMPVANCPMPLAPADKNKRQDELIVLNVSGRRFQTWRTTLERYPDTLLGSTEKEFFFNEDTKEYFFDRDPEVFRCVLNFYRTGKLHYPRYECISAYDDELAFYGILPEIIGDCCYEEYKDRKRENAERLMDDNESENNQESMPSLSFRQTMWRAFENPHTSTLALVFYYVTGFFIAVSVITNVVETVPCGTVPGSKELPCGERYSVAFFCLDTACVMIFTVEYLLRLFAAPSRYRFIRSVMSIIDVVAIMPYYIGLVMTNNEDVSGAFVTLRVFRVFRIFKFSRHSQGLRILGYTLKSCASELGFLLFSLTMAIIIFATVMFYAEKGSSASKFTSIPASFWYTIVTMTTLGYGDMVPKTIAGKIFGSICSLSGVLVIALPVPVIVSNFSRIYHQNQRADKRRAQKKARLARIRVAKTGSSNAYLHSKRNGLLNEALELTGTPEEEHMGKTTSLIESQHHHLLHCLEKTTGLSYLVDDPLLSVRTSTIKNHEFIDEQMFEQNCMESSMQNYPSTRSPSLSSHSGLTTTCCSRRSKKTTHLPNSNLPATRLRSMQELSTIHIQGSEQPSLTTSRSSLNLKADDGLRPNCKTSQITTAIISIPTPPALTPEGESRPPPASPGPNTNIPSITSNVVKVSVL
# Assay: current-voltage relationship / activation, Kv4.3
# Assay type: cell-based
# Text: Rat cDNA genes encoding Kv4.2 (Accession: NM_031730.2) and Kv4.3 (Accession: AB003587.1) were subcloned to vector pcDNA3.1. In addition, human cDNA genes encoding Nav1.7 (Accession: DQ857292.1) and Nav1.5 (Accession: AB158469.2) were subcloned to vectors pcDNA3.1-mod and pcDNA3.1, separately. Then, Kv4.2, Kv4.3, Nav1.5 and Nav1.7 constructs were transiently transfected into the human embryonic kidney 293t (HEK293t) cells using lipofectamine 2000 (Invitrogen, USA) in accordance with manufacturer protocols. Thereafter, HEK293 cells were inoculated within Dulbecco’s modified Eagle’s medium (DMEM) containing 10% fetal bovine serum (FBS) at 5% CO2 and 37°C. The Kv4.3 channel and the Kv4.2 counterpart were then transfected in the absence of β subunit. Subsequently, cells were incubated with a DNA-lipofectamine mixture (one reporter plasmid for green fluorescence protein and channel constructs) for 4-6 h, and were washed with the fresh medium.
# An EPC-10 patch-clamp amplifier (HEKA, Germany) was employed to record the potassium currents at the configuration of whole-cell patch-clamp under an ambient temperature of 22-25°C. The resistance was 2.0-3.0 MΩ when the recording pipette contained a full volume of internal solution (supplemented with 140 mM KCl, 10 mM HEPES, 2.5 mM MgCl2, 5 mM ATP and 11 mM EGTA). KOH was utilized to adjust the pH to 7.2, while sucrose was employed to adjust the osmolarity to 310 mOsm/L. The culture medium was replaced with an external solution containing 150 mM NaCl, 2.5 mM CaCl2, 10 mM HEPES, 2 mM MgCl2, 5 mM KCl, and 10 mM D-glucose. Similarly, sucrose and NaOH were applied to adjust the osmolarity to 330 mOsm/L and pH to 7.4. […] The series resistance was maintained at about 5 MΩ, with 65-70% compensation. Finally, the leakage currents and linear capacitance were subtracted digitally according to the P/4 protocol.
# The voltage-dependent inhibition of Kv4.2 and Kv4.3 channels by JZTX-X was determined by the depolarizing pulses to potentials in 10 mV steps from −80 to +60 mV at an interval of 10 s and the holding potential of -80 mV. […] For quantifying the voltage-depending inhibition of Kv4.2 and Kv4.3 channels, the relative current was drawn based on the membrane potential. Under control conditions, those threshold potentials to initially activate Kv4.2 and Kv4.3 currents were around -40 mV. The JZTX-X treatment at 500 nM inhibited the Kv4.2 and Kv4.3 currents, and then the I-V relation shifted to the right by about 30 mV (from -39.5 ± 1.9 mV to -11.3 ± 1.2 mV ) and 40 mV (from -39.8 ± 1.5 mV to -2.5 ± 0.9 mV ), separately (Fig. 5C and D). Additionally, the channel conductance also shifted rightward by around 30 mV (data not shown).
# Figure 5. […] All data were expressed as mean ± S.E.M (n = 5-7 cells).
smiles,measurement,setting,value
"CC(C)C[C@@H]1NC(=O)[C@H](CCCCN)NC(=O)[C@H](Cc2ccc(O)cc2)NC(=O)[C@@H]2CSSC[C@@H]3NC(=O)[C@H](Cc4ccc(O)cc4)NC(=O)[C@H](Cc4ccccc4)NC(=O)CNC(=O)[C@H](C)NC(=O)[C@H](CSSC[C@H](NC(=O)[C@@H](N)CC(C)C)C(=O)N[C@@H](CO)C(=O)N[C@@H](CCCNC(=N)N)C(=O)N[C@@H](CCC(=O)O)C(=O)NCC(=O)N[C@@H](CCC(=O)O)C(=O)N[C@@H](Cc4ccccc4)C(=O)N2)NC(=O)[C@H](CSSC[C@@H](C(=O)N[C@@H](Cc2ccc(O)cc2)C(=O)N[C@@H](CCCNC(=N)N)C(=O)N[C@@H](CC(N)=O)C(=O)O)NC(=O)[C@H](Cc2c[nH]cn2)NC(=O)[C@H](CC(C)C)NC(=O)[C@H](C(C)C)NC(=O)[C@H](Cc2ccccc2)NC(=O)[C@H](C)NC(=O)[C@H](CCCCN)NC3=O)NC(=O)[C@H](CCCCN)NC(=O)[C@H](CCCNC(=N)N)NC1=O [JZTX-X, Jingzhaotoxin-X] (H-LCSREGEFCYKLRKCCAGFYCKAFVLHCYRN-OH; disulfide 2-16, 9-21, 15-28; N-terminus assumed)","I-V relation potential after toxin, Kv4.3","500 nM, control -39.8 ± 1.5 mV, holding -80 mV, n = 5-7 cells",-2.5 ± 0.9 mV
same,"rightward shift of I-V relation, Kv4.3","500 nM, holding -80 mV",~40 mV
same,"rightward shift of channel conductance, Kv4.3","data not shown, channel not named separately",about 30 mV
same,voltage dependence of Kv4.3 inhibition,"test potentials -10 to +60 mV, 100 nM and 500 nM",dependent on voltage
